# In PMC8717171 (Saudi Journal of Biological Sciences, 2021):
# How the values were obtained:
# [1] = test system: Bacillus cereus; experiment: Disc diffusion; format: cell-based; settings: standard Ciprofloxacin 5 µg/disc
# [2] = test system: Sarcina lutea; experiment: Disc diffusion; format: cell-based; settings: standard Ciprofloxacin 5 µg/disc
# [3] = Antioxidant activity, DPPH free radical scavenging; format: biochemical; settings: absorbance at 517 nm
# [4] = test system: Staphylococcus aureus; experiment: Disc diffusion; format: cell-based; settings: standard Ciprofloxacin 5 µg/disc
# [5] = test system: Candida albicans; experiment: Disc diffusion; format: cell-based; settings: standard Ciprofloxacin 5 µg/disc
# [6] = test system: Vibrio mimicus; experiment: Disc diffusion; format: cell-based; settings: standard Ciprofloxacin 5 µg/disc
# [7] = test system: rat hind paw oedema; experiment: Anti-inflammatory activity, carrageenan-induced rat hind paw oedema; format: in vivo, Sprague Dawley rat; settings: test compounds 100 mg/kg; for Mean paw edema (volume in ml) ± SEM: n = 5
# [8] = test system: Escherichia coli; experiment: Disc diffusion; format: cell-based; settings: standard Ciprofloxacin 5 µg/disc
# [9] = test system: Saccharomyces cerevisiae; experiment: Disc diffusion; format: cell-based; settings: standard Ciprofloxacin 5 µg/disc
# [10] = test system: Aspergillus niger; experiment: Disc diffusion; format: cell-based; settings: standard Ciprofloxacin 5 µg/disc
# [11] = test system: Bacillus subtilis; experiment: Disc diffusion; format: cell-based; settings: standard Ciprofloxacin 5 µg/disc
# [12] = test system: Vibrio parahaemolyticus; experiment: Disc diffusion; format: cell-based; settings: standard Ciprofloxacin 5 µg/disc
# [13] = test system: mice; experiment: Peripheral anti-nociception, acetic acid-induced writhing; format: in vivo, Mus musculus; settings: for Number of Writhing (Mean ± SEM): counted for 15 min, n = 5
# [14] = test system: Shigella boydii; experiment: Disc diffusion; format: cell-based; settings: standard Ciprofloxacin 5 µg/disc
# [15] = test system: Shigella dysenteriae; experiment: Disc diffusion; format: cell-based; settings: standard Ciprofloxacin 5 µg/disc
# [16] = test system: Salmonella paratyphi; experiment: Disc diffusion; format: cell-based; settings: standard Ciprofloxacin 5 µg/disc
# [17] = test system: Bacillus megaterium; experiment: Disc diffusion; format: cell-based; settings: standard Ciprofloxacin 5 µg/disc
# [18] = test system: Pseudomonas aeruginosa; experiment: Disc diffusion; format: cell-based; settings: standard Ciprofloxacin 5 µg/disc
# [19] = test system: Salmonella typhi; experiment: Disc diffusion; format: cell-based; settings: standard Ciprofloxacin 5 µg/disc
# [20] = molecular target: T1, acetylcholinesterase (Rattus norvegicus, UniProt P37136); experiment: In-vitro anti-acetylcholinesterase activity; format: biochemical
# T1 sequence (P37136 32-614): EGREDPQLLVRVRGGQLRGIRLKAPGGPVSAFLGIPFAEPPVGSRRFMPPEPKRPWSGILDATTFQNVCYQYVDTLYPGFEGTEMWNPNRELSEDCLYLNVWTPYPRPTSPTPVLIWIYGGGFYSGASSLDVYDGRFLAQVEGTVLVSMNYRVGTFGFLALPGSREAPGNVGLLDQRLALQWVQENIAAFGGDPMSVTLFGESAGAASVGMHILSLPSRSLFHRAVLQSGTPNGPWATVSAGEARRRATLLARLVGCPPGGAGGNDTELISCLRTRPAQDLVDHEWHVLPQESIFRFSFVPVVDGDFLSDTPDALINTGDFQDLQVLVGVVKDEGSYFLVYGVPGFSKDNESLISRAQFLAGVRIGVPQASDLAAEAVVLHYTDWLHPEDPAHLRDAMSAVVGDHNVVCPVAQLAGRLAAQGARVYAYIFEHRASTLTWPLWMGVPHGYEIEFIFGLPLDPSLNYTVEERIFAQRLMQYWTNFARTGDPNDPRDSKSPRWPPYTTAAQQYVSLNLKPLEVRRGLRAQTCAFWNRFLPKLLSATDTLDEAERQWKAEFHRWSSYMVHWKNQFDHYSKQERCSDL
structure (smiles),measurement,setting,value
"c1ccc(COCc2nc3ccccc3[nH]2)cc1 [Compound 6, 2-((benzyloxy)-methyl)-1H-benzimidazole]",Diameter of zone of inhibition (mm),[1],8 mm
same,Diameter of zone of inhibition (mm),[2],7 mm
same,"IC50 (antioxidant activity, DPPH scavenging)",[3],579.19 µg/mL
same,Diameter of zone of inhibition (mm),[4],7 mm
same,Diameter of zone of inhibition (mm),[5],0 mm
same,Diameter of zone of inhibition (mm),[6],9 mm
same,% Paw edema inhibition,[7]; 1st hour,22.88%
same,Mean paw edema (volume in ml) ± SEM,[7]; 1st hour,0.906 ± 0.047 mL
same,% Paw edema inhibition,[7]; 2nd hour,23.77%
same,Mean paw edema (volume in ml) ± SEM,[7]; 2nd hour,0.93 ± 0.028 mL
same,% Paw edema inhibition,[7]; 3rd hour,25.19%
same,Mean paw edema (volume in ml) ± SEM,[7]; 3rd hour,0.98 ± 0.018 mL
same,% Paw edema inhibition,[7]; 4th hour,31.91%
same,Mean paw edema (volume in ml) ± SEM,[7]; 4th hour,0.96 ± 0.039 mL
same,Diameter of zone of inhibition (mm),[8],0 mm
same,Diameter of zone of inhibition (mm),[9],7 mm
same,Diameter of zone of inhibition (mm),[10],0 mm
same,Diameter of zone of inhibition (mm),[11],10 mm
same,Diameter of zone of inhibition (mm),[12],10 mm
same,% of Inhibition of Writhing,[13]; 25 mg/kg,37.69%
same,Number of Writhing (Mean ± SEM),[13]; 25 mg/kg,16.7 ± 0.889
same,% of Inhibition of Writhing,[13]; 50 mg/kg,55.60%
same,Number of Writhing (Mean ± SEM),[13]; 50 mg/kg,11.9 ± 0.458
same,Diameter of zone of inhibition (mm),[14],7 mm
same,Diameter of zone of inhibition (mm),[15],0 mm
same,Diameter of zone of inhibition (mm),[16],8 mm
same,Diameter of zone of inhibition (mm),[17],7 mm
same,Diameter of zone of inhibition (mm),[18],7 mm
same,Diameter of zone of inhibition (mm),[19],8 mm
same,IC50,[20],124 µM
